# Test results: patent US20150105252A1, “SUBSTITUTED PYRAZOLES AS HERBICIDES” (E I DU PONT DE NEMOURS AND COMPANY, priority 2013, published 2015)
# Assays:
# Conditions in all cases: scale 0 to 100
# canarygrass = assay: Test D postemergence; type: in vivo, Phalaris minor
# Text: (§1) Seeds of plant species selected from bluegrass (annual bluegrass, Poa annua), blackgrass (Alopecurus myosuroides), canarygrass (littleseed canarygrass, Phalaris minor), chickweed (common chickweed, Stellaria media), galium (catchweed bedstraw, Galium aparine), bromegrass, downy (downy bromegrass, Bromus tectorum), field poppy (Papaver rhoeas), field violet (Viola arvensis), foxtail, green (green foxtail, Setaria viridis), deadnettle (henbit deadnettle, Lamium amplexicaule), ryegrass, Italian (Italian ryegrass, Lolium multiflorum), kochia (Kochia scoparia), lambsquarters (Chenopodium album), oilseed rape (Brassica napus), pigweed (redroot pigweed, Amaranthus retroflexus), chamomile (scentless chamomile, Matricaria inodora), speedwell (bird's-eye speedwell, Veronica persica), barley, spring (spring barley, Hordeum vulgare), wheat, spring (spring wheat, Triticum aestivum), buckwheat, wild (wild buckwheat, Polygonum convolvulus), mustard, wild (wild mustard, Sinapis arvensis), oat, wild (wild oat, Avena fatua), radish, wild (wild radish, Raphanus raphanistrum), windgrass (Apera spica-venti), Russian thistle (Salsola kali), barley, winter (winter barley, Hordeum vulgare), and wheat, winter (winter wheat, Triticum aestivum) were planted into a silt loam soil and treated preemergence with test chemicals formulated in a non-phytotoxic solvent mixture which included a surfactant.
# (§2) At the same time, these species were planted in pots containing Redi-Earth® planting medium (Scotts Company, 14111 Scottslawn Road, Marysville, Ohio 43041) comprising spaghnum peat moss, vermiculite, wetting agent and starter nutrients and treated with postemergence applications of the test chemicals formulated in the same manner. Plants ranged in height from 2 to 18 cm (1- to 4-leaf stage). Treated plants and controls were maintained in a controlled growth environment for 14 to 21 days after which time all species were compared to controls and visually evaluated. Plant response ratings, summarized in Table D, are based on a scale of 0 to 100 where 0 is no effect and 100 is complete control. A dash (-) response means no test result.
# buckwheat, wild = assay: Test D preemergence; type: in vivo, Polygonum convolvulus
# Text: as §1, §2
# chamomile = assay: Test D postemergence; type: in vivo, Matricaria inodora
# Summary of the method: (§3)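 Scores of 0 (no effect) to 100 (complete control) come from visual comparison with untreated plants 14–21 days after spraying. Applications were made pre-emergence to silt loam or post-emergence to plants 2–18 cm tall.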
# oat, wild = assay: Test D postemergence; type: in vivo, Avena fatua
# Text: as §1, §2
# wheat, winter = assay: Test D postemergence; type: in vivo, Triticum aestivum
# Summary of the method: as §3
# wheat, spring = assay: Test D postemergence; type: in vivo, Triticum aestivum
# Summary of the method: as §3
# barley, winter = assay: Test D preemergence; type: in vivo, Hordeum vulgare
# Text: as §1, §2
# barley, spring = assay: Test D preemergence; type: in vivo, Hordeum vulgare
# Text: as §1, §2
# radish, wild = assay: Test D preemergence; type: in vivo, Raphanus raphanistrum
# Summary of the method: as §3
# deadnettle = assay: Test D postemergence; type: in vivo, Lamium amplexicaule
# Text: as §1, §2
Compound,"Canarygrass plant response rating (canarygrass; Postemergence, 31 g ai/ha)","Canarygrass plant response rating (canarygrass; Postemergence, 125 g ai/ha)","Canarygrass plant response rating (canarygrass; Postemergence, 250 g ai/ha)","Canarygrass plant response rating (canarygrass; postemergence, 62 g ai/ha)","Plant response rating, Buckwheat, Wild (buckwheat, wild; 31 g ai/ha)","Plant response rating, Buckwheat, Wild (buckwheat, wild; 62 g ai/ha)","Plant response rating, Buckwheat, Wild (buckwheat, wild; 125 g ai/ha)","Plant response rating, Buckwheat, Wild (buckwheat, wild; 250 g ai/ha)","Chamomile plant response rating (chamomile; Postemergence, 31 g ai/ha)","Chamomile plant response rating (chamomile; Postemergence, 125 g ai/ha)","Chamomile plant response rating (chamomile; Postemergence, 250 g ai/ha)","Chamomile plant response rating (chamomile; postemergence, 62 g ai/ha)","Oat, Wild plant response rating (oat, wild; Postemergence, 31 g ai/ha)","Oat, Wild plant response rating (oat, wild; Postemergence, 125 g ai/ha)","Oat, Wild plant response rating (oat, wild; Postemergence, 250 g ai/ha)","Oat, Wild plant response rating (oat, wild; postemergence, 62 g ai/ha)","Wheat, Winter plant response rating (wheat, winter; Postemergence, 31 g ai/ha)","Wheat, Winter plant response rating (wheat, winter; Postemergence, 125 g ai/ha)","Wheat, Winter plant response rating (wheat, winter; Postemergence, 250 g ai/ha)","Wheat, Winter plant response rating (wheat, winter; postemergence, 62 g ai/ha)",other results
CCCc1cc(C(=O)NCC(F)(F)F)nn1Cc1cc(C(F)(F)F)nn1C [Compound 138],5,25,70,5,45,50,70,100,50,60,65,50,20,25,60,20,15,20,35,15,"Wheat, Spring plant response rating (wheat, spring; Postemergence, 31 g ai/ha): 15; Wheat, Spring plant response rating (wheat, spring; Postemergence, 125 g ai/ha): 15; Wheat, Spring plant response rating (wheat, spring; Postemergence, 250 g ai/ha): 25; Wheat, Spring plant response rating (wheat, spring; postemergence, 62 g ai/ha): 15; Plant response rating, Barley, Winter (barley, winter; 31 g ai/ha): 5; Plant response rating, Barley, Winter (barley, winter; 62 g ai/ha): 35; Plant response rating, Barley, Winter (barley, winter; 125 g ai/ha): 60; Plant response rating, Barley, Winter (barley, winter; 250 g ai/ha): 70; Plant response rating, Barley, Spring (barley, spring; 31 g ai/ha): 0; Plant response rating, Barley, Spring (barley, spring; 62 g ai/ha): 5; Plant response rating, Barley, Spring (barley, spring; 125 g ai/ha): 40; Plant response rating, Barley, Spring (barley, spring; 250 g ai/ha): 75; Plant response rating, Radish, Wild (radish, wild; 62 g ai/ha): 100; Plant response rating, Radish, Wild (radish, wild; 125 g ai/ha): 100; Plant response rating, Radish, Wild (radish, wild; 250 g ai/ha): 100; Deadnettle plant response rating (deadnettle; Postemergence, 31 g ai/ha): 65; Deadnettle plant response rating (deadnettle; Postemergence, 125 g ai/ha): 75; Deadnettle plant response rating (deadnettle; Postemergence, 250 g ai/ha): 85; Deadnettle plant response rating (deadnettle; postemergence, 62 g ai/ha): 65"
CCOc1cc(C(=O)NC2CC2)nn1Cc1ccnc(C(F)(F)F)c1 [Compound 189],15,20,30,15,100,100,100,100,55,60,65,55,20,30,35,20,20,25,50,20,"Wheat, Spring plant response rating (wheat, spring; Postemergence, 31 g ai/ha): 0; Wheat, Spring plant response rating (wheat, spring; Postemergence, 125 g ai/ha): 5; Wheat, Spring plant response rating (wheat, spring; Postemergence, 250 g ai/ha): 25; Wheat, Spring plant response rating (wheat, spring; postemergence, 62 g ai/ha): 0; Plant response rating, Barley, Winter (barley, winter; 31 g ai/ha): 10; Plant response rating, Barley, Winter (barley, winter; 62 g ai/ha): 35; Plant response rating, Barley, Winter (barley, winter; 125 g ai/ha): 60; Plant response rating, Barley, Winter (barley, winter; 250 g ai/ha): 65; Plant response rating, Barley, Spring (barley, spring; 31 g ai/ha): 0; Plant response rating, Barley, Spring (barley, spring; 62 g ai/ha): 40; Plant response rating, Barley, Spring (barley, spring; 125 g ai/ha): 70; Plant response rating, Barley, Spring (barley, spring; 250 g ai/ha): 85; Plant response rating, Radish, Wild (radish, wild; 62 g ai/ha): 70; Plant response rating, Radish, Wild (radish, wild; 125 g ai/ha): 100; Plant response rating, Radish, Wild (radish, wild; 250 g ai/ha): 100; Deadnettle plant response rating (deadnettle; Postemergence, 31 g ai/ha): 45; Deadnettle plant response rating (deadnettle; Postemergence, 125 g ai/ha): 55; Deadnettle plant response rating (deadnettle; Postemergence, 250 g ai/ha): 75; Deadnettle plant response rating (deadnettle; postemergence, 62 g ai/ha): 45"
